Values quoted from earlier work in patent publication US20210308040A1, “KETAMINE ORAL TRANSMUCOSAL DELIVERY SYSTEM” (GUANGZHOU DAZHOU BIOMEDICINE LTD., priority 2018, published 2021).

How the values were obtained:
[1] = not given; remark: listed apart in the source
[2] = in vivo
[3] = ketamine 0.3 mg/kg vs morphine 0.1 mg/kg, intravenous push
[4] = 33 CRPS patients; about 23 mg/hr for about 4.7 days
NMDAR = settings: rodent species
[5] = not given; remark: listed apart in the source
[6] = test system: experimentally induced ischemic pain
NMDA receptor = settings: in vitro
[7] = 0 to 24 hours postoperatively; bolus 0.5 mg/kg and infusion 0.25 mg/kg/hr
orofacial pain = settings: fixed doses

CNC1(c2ccccc2Cl)CCCCC1=O (racemic) [ketamine]
absolute oral bioavailability (humans): 10-20% | half-life (in vivo): 2 to 3 h | systemic (primarily hepatic) clearance (in vivo): about 19 ml/min·kg | indications of liver toxicity ([1]; 39 clinical trials, IV infusion rate less than 1.2 mg/kg/h, bolus less than 1 mg/kg): no indications of liver toxicity | reduction of opioid consumption ([1]; low-dose intravenous (IV) ketamine): 40% | onset of antidepressant effect after administration [2]: ≤ 2 h | primary change in mean pain scores versus morphine [3]: no significant differences | mean immediate response (% relief) [4]: ≤ 92% | patients with alteration in hepatic enzyme profile [4]: four patients | patients with hallucinations [4]: six patients

C[C@]12N[C@H](Cc3ccccc31)c1ccccc12 [MK-801]
effect on analgesia (NMDAR): anti-analgesic effect

CN[C@@]1(c2ccccc2Cl)CCCCC1=O [R-ketamine]
psychotomimetic side effects and abuse liability ([5]; animal models): free of psychotomimetic side effects and abuse liability | antidepressant effectiveness versus S-ketamine ([5]; model animal studies): more effective as an antidepressant than S-ketamine

CN[C@]1(c2ccccc2Cl)CCCCC1=O [S-ketamine]
in vivo potency difference between the two enantiomers [6]: about 4 times | potency in NMDAR binding relative to R-ketamine (NMDA receptor): about 4 times | mean difference in morphine consumption versus placebo [7]: 42 mg | potency relative to racemic ketamine (orofacial pain): 2 times
